Measured values published in US20220009906A1, “ISOINDOLIN-1-ONE DERIVATIVES USEFUL AS GRK2 INHIBITORS” (priority 2020, published 2022).
pIC50: −log10 of the molar value.

Molecular target: T1, GRK2 (Homo sapiens, UniProt P25098)
T1 sequence (P25098 1-689): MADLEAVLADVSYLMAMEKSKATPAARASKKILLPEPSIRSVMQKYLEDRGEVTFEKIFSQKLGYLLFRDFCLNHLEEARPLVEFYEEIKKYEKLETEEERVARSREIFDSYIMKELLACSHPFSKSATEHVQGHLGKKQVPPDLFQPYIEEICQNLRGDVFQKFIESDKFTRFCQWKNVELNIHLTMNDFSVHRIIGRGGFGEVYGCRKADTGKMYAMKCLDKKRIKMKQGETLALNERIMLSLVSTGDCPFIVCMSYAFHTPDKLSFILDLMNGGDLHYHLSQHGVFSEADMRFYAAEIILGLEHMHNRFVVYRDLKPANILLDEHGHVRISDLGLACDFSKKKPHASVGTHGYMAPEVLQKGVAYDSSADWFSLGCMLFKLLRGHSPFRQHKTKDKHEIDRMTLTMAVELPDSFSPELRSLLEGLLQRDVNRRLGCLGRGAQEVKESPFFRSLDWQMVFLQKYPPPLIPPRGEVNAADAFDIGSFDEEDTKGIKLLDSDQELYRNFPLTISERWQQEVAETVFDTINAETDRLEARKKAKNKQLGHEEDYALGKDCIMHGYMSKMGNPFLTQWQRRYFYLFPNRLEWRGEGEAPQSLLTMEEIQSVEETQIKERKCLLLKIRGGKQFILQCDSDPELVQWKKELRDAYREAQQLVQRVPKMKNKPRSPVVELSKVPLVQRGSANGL
Test: hGRK2 LANCE Ultra In Vitro Assay
Type: biochemical
Conditions: not given
Protocol: hGRK2 LANCE Ultra In Vitro Assay
G-protein coupled receptor kinases (GR Kinases) desensitize activated G-protein coupled receptors (GPCRs), by phosphorylation of cytoplasmic loops or carboxyl-terminal tails of GPCRs. GRK2 is one of the 6 different GR kinases and is implicated in heart failure and diabetes.
This assay is sensitive and requires as low as 10 nM enzyme, in a total volume of 10 μL. In addition, the ATP concentration can be varied over a broad range, without interfering with the assay or changing the assay condition. […] Testing inhibitors routinely at both high and low ATP concentrations also enables identification of potential non-ATP competitive inhibitors.
Paroxetine was used as the reference compound in this assay.
Test compounds were dissolved in DMSO at 1 mM and were 3-fold serial diluted. The compound DMSO solutions were then added (100 nL) into a plate well using an acoustic dispenser. To each well was then added 20 nM GRK2 (5 μL) in assay buffer (20 mM HEPES, pH 7.5, 10 mM MgCl2, 0.001% Tween-20®). The plate was sealed and centrifuged at 1000 rpm for 1 min. The plate and wells containing a mixture of GRK2 and test compound were incubated at ambient temperature for 30 min (prior to initializing the enzymatic reaction).
Enzyme reactions were initiated by the addition of 4.9 μL Substrates/Eu-Ab mix to each well. […] Final concentrations of reagents in the assays were as follows: 20 mM HEPES, pH 7.5; 10 mM MgCl2; 0.001% Tween-20® (w/v); 30 or 600 μM ATP; 200 nM ULight-peptide; 4 nM Eu-Ab; 10 nM GRK2; and 1% DMSO.
The plates were sealed and centrifuged at 1000 rpm for 1 min. For reactions at low ATP concentration (30 μM), reaction mixtures were incubated at ambient temperature for 120 min. For reactions at high ATP concentration (600 μM), reaction mixtures were incubated at ambient temperature for 60 min.
The enzyme reactions were quenched by addition of 10 μL of 12 mM EDTA in 1× LANCE detection solution to each well. The plates were then incubated at ambient temperature for 30 min. Time-resolved fluorescence signal of reactions were read on an EnVision or PHERAstar plate reader with the following parameters: Excitation wavelength=337 nm; emission wavelength (donor)=620 nm; emission wavelength (acceptor)=665 nm.
The raw HTRF data were converted to % active as follows:
% active=(sample−NC)/(PC−NC)*100
where NC is the mean of negative control (reactions without GRK2), and PC is the mean of positive control (reactions with GRK2 but without inhibitor). IC50 values were determined from a 4-parameter fit, using the following equation:
Y=Bottom+(Top−Bottom)/(1+10^((Log IC50−X)*Hill slope))
where X=log10 of the compound concentration.

`COc1cccc(CN2C(=O)c3cc(-c4cn[nH]c4)ccc3C23CCCC3C(=O)O)c1` (stereo not drawn) [Compound 110, 2′-(3-methoxybenzyl)-3′-oxo-5′-(1H-pyrazol-4-yl)spiro[cyclopentane-1,1′-isoindoline]-2-carboxylic acid] was tested, and the pIC50 was 6.51.

Same assay, conditions: Biological Example 1 GRK2 Lancer IC50 (μM), 10 nM GRK2; 30 or 600 μM ATP (not stated which); multiple measurements listed individually

`COc1cccc(CN2C(=O)c3cc(-c4cn[nH]c4)ccc3C23CCC(C(N)=O)C3)c1` (stereo not drawn) [Compound 108, 2′-(3-methoxybenzyl)-3′-oxo-5′-(1H-pyrazol-4-yl)spiro[cyclopentane-1,1′-isoindoline]-3-carboxamide] and `CNC1CCC2(C1)c1ccc(-c3cn[nH]c3)cc1C(=O)N2Cc1cccc(OC)c1` (stereo not drawn) [Compound 118, 2′-(3-methoxybenzyl)-3-(methylamino)-5′-(1H-pyrazol-4-yl)spiro[cyclopentane-1,1′-isoindolin]-3′-one] cannot be ordered by IC50: 0.004 µM for the first, less than 0.005 µM for the second.

Going from `COC(=O)NC1CCC2(C1)c1ccc(-c3cn[nH]c3)cc1C(=O)N2Cc1cccc(OC)c1` (stereo not drawn) [Compound 109, methyl (2′-(3-methoxybenzyl)-3′-oxo-5′-(1H-pyrazol-4-yl)spiro[cyclopentane-1,1′-isoindolin]-3-yl)carbamate] to `COC(=O)NC1CCCC12c1ccc(-c3cn[nH]c3)cc1C(=O)N2Cc1cccc(OC)c1` (stereo not drawn) [Compound 115, Methyl (2′-(3-methoxybenzyl)-3′-oxo-5′-(1H-pyrazol-4-yl)spiro[cyclopentane-1,1′-isoindolin]-2-yl)carbamate], the IC50 rises from 0.006 µM to 0.177 µM (29-fold). The first is the more potent here.

Going from `COc1cccc(CN2C(=O)c3cc(-c4cn[nH]c4)ccc3C23CCCC3C(N)=O)c1` (stereo not drawn) [Compound 111, 2′-(3-methoxybenzyl)-3′-oxo-5′-(1H-pyrazol-4-yl)spiro[cyclopentane-1,1′-isoindoline]-2-carboxamide] to `COc1cccc(CN2C(=O)c3cc(-c4cn[nH]c4)ccc3C23CCCC3N)c1` (stereo not drawn) [Compound 123, 2-amino-2′-(3-methoxybenzyl)-5′-(1H-pyrazol-4-yl)spiro[cyclopentane-1,1′-isoindolin]-3′-one], the IC50 rises from 0.007 µM to 0.015 µM (2.1-fold).

Going from `CCOc1cccc([C@H](CO)N2Cc3ccc(-c4cn[nH]c4)cc3C2=O)c1` [Compound 112] to `CCOc1cccc([C@@H](CO)N2Cc3ccc(-c4cn[nH]c4)cc3C2=O)c1` [Compound 114], the IC50 falls from 0.306 µM to 0.006 µM (51-fold). The second is the more potent here.

Compared with `COc1cccc(C(CCC(=O)O)N2Cc3ccc(-c4cn[nH]c4)cc3C2=O)c1` (stereo not drawn) [Compound 117, 4-(3-methoxyphenyl)-4-(1-oxo-6-(1H-pyrazol-4-yl)isoindolin-2-yl)butanoic acid], `CC(=O)Oc1cccc(CN2Cc3ccc(-c4cn[nH]c4)cc3C2=O)c1` [Compound 136] is 29-fold lower in IC50: 0.404 µM for the first, 0.014 µM for the second. The second is the more potent here.

Going from `O=C1c2cc(-c3cn[nH]c3)ccc2CN1Cc1cccc(-n2cccn2)c1` [Compound 119] to `O=C1c2cc(-c3cn[nH]c3)ccc2CN1Cc1cccc(O)c1` [Compound 135], the IC50 falls from 0.113 µM to 0.005 µM (23-fold). The second is the more potent here.

First: COc1cccc([C@@H](C)N2Cc3c(cc(-c4cn[nH]c4)cc3-c3cncc(F)c3)C2=O)c1 [Compound 120, (R)-4-(5-fluoropyridin-3-yl)-2-(1-(3-methoxyphenyl)ethyl)-6-(1H-pyrazol-4-yl)isoindolin-1-one]
Second: COc1cncc(-c2cc(-c3cn[nH]c3)cc3c2CN([C@H](C)c2cccc(OC)c2)C3=O)c1 [Compound 126, (R)-2-(1-(3-methoxyphenyl)ethyl)-4-(5-methoxypyridin-3-yl)-6-(1H-pyrazol-4-yl)isoindolin-1-one]
The IC50 of the first is 2.7-fold lower: 0.009 µM for the first, 0.024 µM for the second. The first is the more potent here.

Compared with `COc1cccc([C@@H](C)N2Cc3c(cc(-c4cn[nH]c4)cc3-c3ccncc3)C2=O)c1` [Compound 121, (R)-2-(1-(3-methoxyphenyl)ethyl)-6-(1H-pyrazol-4-yl)-4-(pyridin-4-yl)isoindolin-1-one], `COc1cccc(C(CO)N2Cc3c(cc(-c4cn[nH]c4)cc3-c3ccncc3)C2=O)c1` (stereo not drawn) [Compound 133, 2-(2-Hydroxy-1-(3-methoxyphenyl)ethyl)-6-(1H-pyrazol-4-yl)-4-(pyridin-4-yl)isoindolin-1-one] is 2.1-fold higher in IC50: 0.01 µM for the first, 0.021 µM for the second. The first is the more potent here.

Compared with `COc1cccc([C@@H](C)N2C(=O)c3cc(-c4cn[nH]c4)ccc3C23CCCC3)c1` [Compound 122, (R)-2′-(1-(3-methoxyphenyl)ethyl)-5′-(1H-pyrazol-4-yl)spiro[cyclopentane-1,1′-isoindolin]-3′-one], `COc1cccc([C@@H](C)N2Cc3c(cc(-c4cn[nH]c4)cc3-c3ccc(O)cc3)C2=O)c1` [Compound 129, (R)-4-(4-hydroxyphenyl)-2-(1-(3-methoxyphenyl)ethyl)-6-(1H-pyrazol-4-yl)isoindolin-1-one] is 110-fold lower in IC50: 1.18 µM for the first, 0.011 µM for the second.

Compared with `COc1cccc([C@@H](C)N2Cc3c(cc(-c4cn[nH]c4)cc3-c3cccnc3)C2=O)c1` [Compound 124, (R)-2-(1-(3-methoxyphenyl)ethyl)-6-(1H-pyrazol-4-yl)-4-(pyridin-3-yl)isoindolin-1-one], `COc1cccc([C@@H](C)N2Cc3c(cc(-c4cn[nH]c4)cc3-c3cccc(O)c3)C2=O)c1` [Compound 139, (R)-4-(3-hydroxyphenyl)-2-(1-(3-methoxyphenyl)ethyl)-6-(1H-pyrazol-4-yl)isoindolin-1-one] is 6.6-fold higher in IC50: 0.005 µM for the first, 0.033 µM for the second. The first is the more potent here.

Going from `COc1cccc([C@@H](C)N2Cc3c(cc(-c4cn[nH]c4)cc3-c3cccnc3N)C2=O)c1` [Compound 125, (R)-4-(2-aminopyridin-3-yl)-2-(1-(3-methoxyphenyl)ethyl)-6-(1H-pyrazol-4-yl)isoindolin-1-one] to `COc1cccc([C@@H](C)N2Cc3c(cc(-c4cn[nH]c4)cc3-c3ccc(OC)nc3)C2=O)c1` [Compound 127, (R)-2-(1-(3-methoxyphenyl)ethyl)-4-(6-methoxypyridin-3-yl)-6-(1H-pyrazol-4-yl)isoindolin-1-one], the IC50 rises from 0.022 µM to 0.047 µM (2.1-fold). The first is the more potent here.

Compared with `O=C(N[C@H]1C[C@H]2CC[C@@H]1C2)c1cccc(CN2Cc3ccc(-c4cn[nH]c4)cc3C2=O)c1` [Compound 128], `O=C(Oc1cccc(CN2Cc3ccc(-c4cn[nH]c4)cc3C2=O)c1)C1CC1` [Compound 137] is higher in IC50: less than 0.005 µM for the first, 0.034 µM for the second.

Going from `COc1cccc([C@@H](C)N2Cc3c(cc(-c4cn[nH]c4)cc3-c3cncnc3)C2=O)c1` [Compound 130, 2-[(1R)-1-(3-methoxyphenyl)ethyl]-6-(1H-pyrazol-4-yl)-4-pyrimidin-5-yl-isoindolin-1-one] to `COc1cccc([C@@H](C)N2Cc3c(cc(-c4cn[nH]c4)cc3-c3cc(C)nc(C)c3)C2=O)c1` [Compound 132, (R)-4-(2,6-dimethylpyridin-4-yl)-2-(1-(3-methoxyphenyl)ethyl)-6-(1H-pyrazol-4-yl)isoindolin-1-one], the IC50 rises from less than 0.005 µM to 0.005 µM.

Compared with `Cc1cnccc1CNC(=O)c1cccc(CN2C(=O)c3cc(-c4cn[nH]c4)ccc3C23CCCC3)c1` [Compound 134, N-((3-methylpyridin-4-yl)methyl)-3-((3′-oxo-5′-(1H-pyrazol-4-yl)spiro[cyclopentane-1,1′-isoindolin]-2′-yl)methyl)benzamide], `CC(=O)OCC(=O)Oc1cccc(CN2Cc3ccc(-c4cn[nH]c4)cc3C2=O)c1` [Compound 138] is 1.5-fold lower in IC50: 0.003 µM for the first, 0.002 µM for the second. The second is the more potent here.

With `COc1cccc(-c2cc(-c3cn[nH]c3)cc3c2CN([C@H](C)c2cccc(OC)c2)C3=O)c1` [Compound 140, (R)-4-(3-methoxyphenyl)-2-(1-(3-methoxyphenyl)ethyl)-6-(1H-pyrazol-4-yl)isoindolin-1-one] the IC50 was 0.265 µM.
